Test results published in patent US8937092B2, “Aryl or N-heteroaryl substituted methanesulfonamide derivatives as vanilloid receptor ligands” (Gruenenthal GmbH, priority 2011, dated 2015).

Molecular target: vanilloid receptor 1 (VR1/TRPV1 receptor) (Homo sapiens, UniProt Q8NER1)
Assay: Functional FLIPR Ca2+ influx assay on vanilloid receptor 1, capsaicin (Cap) stimulus
Assay type: cell-based
Conditions: Ki from IC50 by Cheng-Prusoff, read-out: (f) Ki (human being) [nM], Cap
Protocol: Furthermore, preference may be given to compounds according to the invention that cause a 50 percent displacement of capsaicin, which is present at a concentration of 100 nM, in a FLIPR assay with CHO K1 cells which were transfected with the human VR1 gene at a concentration of less than 2,000 nM, preferably less than 1,000 nM, particularly preferably less than 300 nM, most particularly preferably less than 100 nM, even more preferably less than 75 nM, additionally preferably less than 50 nM, most preferably less than 10 nM.
In the process, the Ca^2+ influx is quantified in the FLIPR assay with the aid of a Ca^2+-sensitive dye (type Fluo-4, Molecular Probes Europe BV, Leiden, the Netherlands) in a fluorescent imaging plate reader (FLIPR, Molecular Devices, Sunnyvale, USA), as described hereinafter.
Pharmacological Methods I. Functional Testing Carried Out on the Vanilloid Receptor 1 (VRI/TRPV1 Receptor) […]
The number of cells in the suspension is set to 3×10^5 per mL and 150 μL of this suspension are in each case introduced into a recess in the cell culture plates coated as described hereinbefore. In the incubator the plates are left for two to three days at 37° C., 5% by volume of CO2 and 95% relative humidity. Subsequently, the cells are loaded with 2 μM of Fluo-4 and 0.01% by volume of Pluronic F127 (Molecular Probes Europe BV, Leiden, the Netherlands) in HBSS buffer (Hank's buffered saline solution, Gibco Invitrogen GmbH, Karlsruhe, Germany) for 30 min at 37° C., washed 3 times with HBSS buffer and after further incubation for 15 minutes at room temperature used for Ca^2+ measurement in a FLIPR assay. The Ca^2+-dependent fluorescence is in this case measured before and after the addition of substances (λex=488 nm, λem=540 nm). Quantification is carried out by measuring the highest fluorescence intensity (FC, fluorescence counts) over time.
The FLIPR protocol consists of 2 substance additions. First the compounds to be tested (10 μM) are pipetted onto the cells and the Ca^2+ influx is compared with the control (capsaicin 10 μM). This provides the result in % activation based on the Ca^2+ signal after the addition of 10 μM of capsaicin (CP). After 5 minutes' incubation, 100 nM of capsaicin are applied and the Ca^2+ influx is also determined.
Desensitising agonists and antagonists lead to suppression of the Ca^2+ influx. The % inhibition is calculated compared to the maximum achievable inhibition with 10 μM of capsazepine.
Triple analyses (n=3) are carried out and repeated in at least 3 independent experiments (N=4).
Starting from the percentage displacement caused by different concentrations of the compounds to be tested of general formula I, IC50 inhibitory concentrations which cause a 50-percent displacement of capsaicin were calculated. K, values for the test substances were obtained by conversion by means of the Cheng-Prusoff equation (Cheng, Prusoff; Biochem. Pharmacol. 22, 3099-3108, 1973).
The affinity of the compounds according to the invention for the vanilloid receptor 1 (VR1/TRPV1 receptor) was determined as described herein before (pharmacological method I).
The value after the “@” symbol indicates the concentration at which the inhibition (as a percentage) was respectively determined.

Row | Molecule | Ki [nM]
1 | COc1ccccc1-c1nc(C(F)(F)F)ccc1CNC(=O)C(C)c1ccc(CNS(C)(=O)=O)c(F)c1 (stereo not drawn) [Example 60, 2-(3-fluoro-4-(methylsulfonamidomethyl)phenyl)-N-((2-(2-methoxyphenyl)-6-(trifluoromethyl)pyridin-3-yl)methyl)propanamide] | 43
2 | COc1ccc(-c2nc(C(F)(F)F)ccc2CNC(=O)C(C)c2ccc(CNS(C)(=O)=O)c(F)c2)cn1 (stereo not drawn) [Example 68, 2-(3-fluoro-4-(methylsulfonamidomethyl)phenyl)-N-((6′-methoxy-6-(trifluoromethyl)-2,3′-bipyridin-3-yl)methyl)propanamide] | 72
3 | COc1cc(NC(=O)NCc2ccc(C(F)(F)F)nc2-c2cccc(C)c2)ccc1CNS(C)(=O)=O [Example 80, N-(2-methoxy-4-(3-((2-m-tolyl-6-(trifluoromethyl)pyridin-3-yl)methyl)ureido)benzyl)methanesulfonamide] | 68
4 | Cc1cccc(-c2nc(C(F)(F)F)ccc2CNC(=O)Nc2ccc(CNS(C)(=O)=O)c(C)c2)c1 [Example 81, N-(2-methyl-4-(3-((2-m-tolyl-6-(trifluoromethyl)pyridin-3-yl)methyl)ureido)benzyl)methanesulfonamide] | 7
5 | CCS(=O)(=O)NCc1ccc(NC(=O)NCc2ccc(C(F)(F)F)nc2-c2cccc(C)c2)cc1 [Example 82, N-(4-(3-((2-m-tolyl-6-(trifluoromethyl)pyridin-3-yl)methyl)ureido)benzyl)ethanesulfonamide] | 23
6 | Cc1cccc(-c2nc(C(F)(F)F)ccc2CNC(=O)Nc2ccc(CNS(N)(=O)=O)cc2)c1 [Example 84, 1-{[2-m-tolyll-6-(trifluoromethyl)pyridin-3-yl]methyl}-3-{4-[(sulfamoylamino)methyl]phenyl}urea] | 9
7 | Cc1cccc(-c2nc(C(F)(F)F)ccc2CNC(=O)Nc2ccc(CNS(N)(=O)=O)c(F)c2)c1 [Example 86, 1-{3-fluoro-4-[(sulfamoylamino)methyl]phenyl}-3-{[2-m-tolyl-6-(trifluoromethyl)pyridin-3-yl]methyl}urea] | 6
8 | Cc1cccc(-c2nc(C(F)(F)F)ccc2CNC(=O)C(C)c2ccc(CNS(N)(=O)=O)cc2)c1 (stereo not drawn) [Example 88, 2-(4-((sulfamoylamino)methyl)phenyl)-N-((2-m-tolyl-6-(trifluoromethyl)pyridin-3-yl)methyl)propanamide] | 7

Further lines, results first:

Row | Ki [nM] | Molecule
9 | 74 | CC(C(=O)NCc1ccc(C(F)(F)F)nc1-c1cccc(C#N)c1)c1ccc(CNS(C)(=O)=O)c(F)c1 (stereo not drawn) [Example 57, N-((2-(3-cyanophenyl)-6-(trifluoromethyl)pyridin-3-yl)methyl)-2-(3-fluoro-4-(methylsulfonamidomethyl)phenyl)propanamide]
10 | 45 | CC(C(=O)NCc1ccc(C(F)(F)F)nc1-c1ccc(C#N)cc1)c1ccc(CNS(C)(=O)=O)c(F)c1 (stereo not drawn) [Example 58, N-((2-(4-cyanophenyl)-6-(trifluoromethyl)pyridin-3-yl)methyl)-2-(3-fluoro-4-(methylsulfonamidomethyl)phenyl)propanamide]
11 | 53 | COc1cccc(-c2nc(C(F)(F)F)ccc2CNC(=O)C(C)c2ccc(CNS(C)(=O)=O)c(F)c2)c1 (stereo not drawn) [Example 61, 2-(3-fluoro-4-(methylsulfonamidomethyl)phenyl)-N-((2-(3-methoxyphenyl)-6-(trifluoromethyl)pyridin-3-yl)methyl)propanamide]
12 | 59 | COc1ccc(-c2nc(C(F)(F)F)ccc2CNC(=O)C(C)c2ccc(CNS(C)(=O)=O)c(F)c2)cc1 (stereo not drawn) [Example 62, 2-(3-fluoro-4-(methylsulfonamidomethyl)phenyl)-N-((2-(4-methoxyphenyl)-6-(trifluoromethyl)pyridin-3-yl)methyl)propanamide]
13 | 28 | CCOc1cccc(-c2nc(C(F)(F)F)ccc2CNC(=O)C(C)c2ccc(CNS(C)(=O)=O)c(F)c2)c1 (stereo not drawn) [Example 64, N-((2-(3-ethoxyphenyl)-6-(trifluoromethyl)pyridin-3-yl)methyl)-2-(3-fluoro-4-(methylsulfonamidomethyl)phenyl)propanamide]
14 | 24 | CC(C(=O)NCc1ccc(C(F)(F)F)nc1-c1cncc(Cl)c1)c1ccc(CNS(C)(=O)=O)c(F)c1 (stereo not drawn) [Example 73, N-((5′-chloro-6-(trifluoromethyl)-2,3′-bipyridin-3-yl)methyl)-2-(3-fluoro-4-(methylsulfonamidomethyl)phenyl)propanamide]
15 | 3 | Cc1cccc(-c2nc(C(F)(F)F)ccc2CNC(=O)C(C)c2ccc(CNS(C)(=O)=O)c(Cl)c2)c1 (stereo not drawn) [Example 77, 2-(3-chloro-4-(methylsulfonamidomethyl)phenyl)-N-((2-m-tolyl-6-(trifluoromethyl)pyridin-3-yl)methyl)propanamide]
16 | 73 | COc1cc(C(C)C(=O)NCc2ccc(C(F)(F)F)nc2-c2cccc(C)c2)ccc1CNS(C)(=O)=O (stereo not drawn) [Example 78, 2-(3-methoxy-4-(methylsulfonamidomethyl)phenyl)-N-((2-m-tolyl-6-(trifluoromethyl)pyridin-3-yl)methyl)propanamide]
17 | 74 | CCS(=O)(=O)NCc1ccc(C(C)C(=O)NCc2ccc(C(F)(F)F)nc2-c2cccc(C)c2)cc1F (stereo not drawn) [Example 83, 2-(4-(ethylsulfonamidomethyl)-3-fluorophenyl)-N-((2-m-tolyl-6-(trifluoromethyl)pyridin-3-yl)methyl)propanamide]
18 | 3 | Cc1cccc(-c2nc(C(F)(F)F)ccc2CNC(=O)C(C)c2ccc(CNS(N)(=O)=O)c(F)c2)c1 (stereo not drawn) [Example 85, 2-(3-fluoro-4-((sulfamoylamino)methyl)phenyl)-N-((2-m-tolyl-6-(trifluoromethyl)pyridin-3-yl)methyl)propanamide]

Same assay, conditions: inhibition at 1 μM

Row | Molecule | (f) inhibition (human being), Cap, @1 μM [%@1 μM]
19 | N-((2-(2-ethoxy-5-methylphenyl)-6-(trifluoromethyl)pyridin-3-yl)methyl)-2-(3-fluoro-4-(methylsulfonamidomethyl)phenyl)propanamide [Example 48] | 15

Same assay, conditions: inhibition at 5 μM, read-out: (f) inhibition (human being), Cap, @5 μM

Row | Molecule | inhibition at 5 µM [%]
20 | COc1cncc(-c2nc(C(F)(F)F)ccc2CNC(=O)C(C)c2ccc(CNS(C)(=O)=O)c(F)c2)c1 (stereo not drawn) [Example 69, 2-(3-fluoro-4-(methylsulfonamidomethyl)phenyl)-N-((5′-methoxy-6-(trifluoromethyl)-2,3′-bipyridin-3-yl)methyl)propanamide] | 49
21 | Cc1ncccc1-c1nc(C(F)(F)F)ccc1CNC(=O)C(C)c1ccc(CNS(C)(=O)=O)c(F)c1 (stereo not drawn) [Example 71, 2-(3-fluoro-4-(methylsulfonamidomethyl)phenyl)-N-((2′-methyl-6-(trifluoromethyl)-2,3′-bipyridin-3-yl)methyl)propanamide] | 19

The next lines start with the values.

Row | inhibition at 5 µM [%] | Molecule
22 | 20 | CC(C(=O)NCc1ccc(C(F)(F)F)nc1-c1cccc(O)c1)c1ccc(CNS(C)(=O)=O)c(F)c1 (stereo not drawn) [Example 59, 2-(3-fluoro-4-(methylsulfonamidomethyl)phenyl)-N-((2-(3-hydroxyphenyl)-6-(trifluoromethyl)pyridin-3-yl)methyl)propanamide]
23 | 15 | CC(C(=O)NCc1ccc(C(F)(F)F)nc1-c1cccnc1)c1ccc(CNS(C)(=O)=O)c(F)c1 (stereo not drawn) [Example 67, 2-(3-fluoro-4-(methylsulfonamidomethyl)phenyl)-N-((6-(trifluoromethyl)-2,3′-bipyridin-3-yl)methyl)propanamide]
24 | 27 | Cc1ccc(-c2nc(C(F)(F)F)ccc2CNC(=O)C(C)c2ccc(CNS(C)(=O)=O)c(F)c2)cn1 (stereo not drawn) [Example 72, 2-(3-fluoro-4-(methylsulfonamidomethyl)phenyl)-N-((6′-methyl-6-(trifluoromethyl)-2,3′-bipyridin-3-yl)methyl)propanamide]
